In general, LD50 refers to the dose at which mortality reaches 50%. A low value points to greater toxicity. A word on the mortality: it is the percentage killed.

Data set [1] can be described thus: Acute oral toxicity in male mice, LD50 by Litchfield-Wilcoxon method (Test Example 5). To be noted: mouse, in vivo, mortality on the seventh day. On the procedure: Compounds of this invention were tested on male mice for acute toxicity by oral administration.
Data set [2] concerns tobacco cutworm (Spodoptera litura). Kind of data set: Mortality of third-instar larvae of tobacco cutworm on cabbage (Test Example 1). To be noted: 72 h. Format: in vivo. On the procedure: Ten third-instar larvae of tobacco cutworm (Spodoptera litura) were placed on a cabbage (one-month-old seedling) planted in a pot, and a 50% emulsion of the compound to be tested was diluted to a specified concentration and applied to the leaves of the plant to fully wet them. The test compound of each specified concentration was tested on two pots.

In data set [3] the test system is green rice leafhopper (Nephotettix cincticeps). Kind of data set: Mortality of female adults of green rice leafhopper on paddy rice (Test Example 2). Format: in vivo. To be noted: 72 h. As to the method: An emulsion of specified concentration was prepared from a 50% wettable powder of the compound to be tested and applied to the leaves of paddy rice (one-month-old seedlings) planted in a pot to fully wet the leaves. After the emulsion had been dried, the pot was covered with a net cage, into which 10 female adults of green rice leafhopper (Nephotettix cincticeps) were released. The compound of each specified concentration was tested on two pots.

Data set [4] has as its system house fly (Musca domestica). Kind of data set: Local application to house fly, LD50 by Probit method (Test Example 4). Format: in vivo. Conditions: topical, 24 h. As to the method: The compound to be tested was dissolved in a predetermined amount of acetone. The solution was diluted to various concentrations and locally applied to house fly (Musca domestica).

In data set [1], `CCCCN(CC#N)SN(C)C(=O)Oc1cccc2c1OC(C)(C)C2` [Example 33, 2,3-dihydro-2,2-dimethylbenzofuran-7-yl N-(N-butyl-N-cyanomethylaminosulfenyl)-N-methyl-carbamate] came in with an LD50 at 168 h of 103 mg/kg. Besides, in data set [2], the mortality at 500 ppm came to 75%, the mortality at 1000 ppm came out at 90% and the mortality at 2000 ppm stood at 100%. Besides, in data set [3], the mortality at 200 ppm came out at 70%, the mortality at 400 ppm turned out to be 90% and the mortality at 800 ppm was found to be 100%. Moreover, in data set [4], the LD50 was determined as 9.1 mg/kg.
On to `CC(C)N(CC#N)SN(C)C(=O)Oc1cccc2c1OC(C)(C)C2` [Example 34], for which the LD50 at 168 h in data set [1] is 95 mg/kg. For the same molecule, in data set [2], the mortality at 500 ppm is 75%, the mortality at 1000 ppm amounted to 90% and the mortality at 2000 ppm amounted to 100%. In data set [3], this molecule came in with a mortality at 200 ppm of 65%, a mortality at 400 ppm of 90% and a mortality at 800 ppm of 100%. This molecule had an LD50 in data set [4] of 16.7 mg/kg.
Consider `CN(SN(CC#N)c1ccccc1)C(=O)Oc1cccc2c1OC(C)(C)C2` [Example 35], for which the LD50 at 168 h in data set [1] was determined as 95 mg/kg. In data set [2], this molecule came in with a mortality at 500 ppm of 65%, a mortality at 1000 ppm of 80% and a mortality at 2000 ppm of 100%. For the same molecule, in data set [3], the mortality at 200 ppm stood at 60%, the mortality at 400 ppm turned out to be 75% and the mortality at 800 ppm was 95%. The same molecule returned an LD50 in data set [4] of 65.6 mg/kg.
In data set [1], `Cc1ccc(N(CC#N)SN(C)C(=O)Oc2cccc3c2OC(C)(C)C3)cc1` [Example 36] displayed an LD50 at 168 h of 70 mg/kg. In data set [2], this molecule gave a mortality at 500 ppm of 65%, a mortality at 1000 ppm of 80% and a mortality at 2000 ppm of 100%. In addition, in data set [3], the mortality at 200 ppm amounted to 60%, the mortality at 400 ppm was determined as 75% and the mortality at 800 ppm worked out at 95%. Besides, in data set [4], the LD50 was determined as 59.3 mg/kg.
`CN(CCC#N)SN(C)C(=O)Oc1cccc2c1OC(C)(C)C2` [Example 37] gave an LD50 at 168 h in data set [1] of 65 mg/kg. In data set [2], this molecule displayed a mortality at 500 ppm of 70%, a mortality at 1000 ppm of 85% and a mortality at 2000 ppm of 100%. Also, in data set [3], the mortality at 200 ppm was 65%, the mortality at 400 ppm came to 85% and the mortality at 800 ppm turned out to be 100%. Also, the LD50 in data set [4] is 11.8 mg/kg.
For the molecule `CC(C)N(CCC#N)SN(C)C(=O)Oc1cccc2c1OC(C)(C)C2` [Example 38], the 50% lethal dose (LD50) at 168 h in data set [1] is 125 mg/kg. Moreover, in data set [2], the mortality at 500 ppm came to 75%, the mortality at 1000 ppm turned out to be 90% and the mortality at 2000 ppm came to 100%. In data set [3], this molecule showed a mortality at 200 ppm of 70%, a mortality at 400 ppm of 90% and a mortality at 800 ppm of 100%. Moreover, in data set [4], the LD50 worked out at 17.5 mg/kg.
`CCCCN(CCC#N)SN(C)C(=O)Oc1cccc2c1OC(C)(C)C2` [Example 39, 2,3-Dihydro-2,2-dimethylbenzofuran-7-yl N-(N-n-butyl-N-cyanoethylaminosulfenyl)-N-methyl-carbamate] had an LD50 at 168 h in data set [1] of 110 mg/kg. In data set [2], this molecule yielded a mortality at 500 ppm of 75%, a mortality at 1000 ppm of 90% and a mortality at 2000 ppm of 100%. In data set [3], this molecule came in with a mortality at 200 ppm of 70%, a mortality at 400 ppm of 90% and a mortality at 800 ppm of 100%. This molecule gave an LD50 in data set [4] of 13.7 mg/kg.
In data set [1], `CC(C)CN(CCC#N)SN(C)C(=O)Oc1cccc2c1OC(C)(C)C2` [Example 40] had an LD50 at 168 h of 103 mg/kg. Moreover, in data set [2], the mortality at 500 ppm was 75%, the mortality at 1000 ppm was 85% and the mortality at 2000 ppm is 100%. Further, in data set [3], the mortality at 200 ppm came to 70%, the mortality at 400 ppm stood at 85% and the mortality at 800 ppm is 100%. Further, in data set [4], the LD50 stood at 37.9 mg/kg.
Take `CCCCCCCCN(CCC#N)SN(C)C(=O)Oc1cccc2c1OC(C)(C)C2` [Example 41]: the LD50 at 168 h in data set [1] was 105 mg/kg. In data set [2], the mortality at 500 ppm was determined as 65%, the mortality at 1000 ppm turned out to be 80% and the mortality at 2000 ppm is 100%. Moreover, in data set [3], the mortality at 200 ppm stood at 60%, the mortality at 400 ppm was determined as 75% and the mortality at 800 ppm was found to be 95%. This molecule also returned an LD50 in data set [4] of 54.6 mg/kg.
`CN(SN(CCC#N)C1CCCCC1)C(=O)Oc1cccc2c1OC(C)(C)C2` [Example 42] came in with an LD50 at 168 h in data set [1] of 88 mg/kg. In data set [2], the mortality at 500 ppm was 70%, the mortality at 1000 ppm came to 85% and the mortality at 2000 ppm was determined as 100%. In data set [3], this molecule gave a mortality at 200 ppm of 65%, a mortality at 400 ppm of 85% and a mortality at 800 ppm of 100%. Moreover, in data set [4], the LD50 is 46 mg/kg.
Turning to `CCOC(=O)CN(SN(C)C(=O)Oc1cccc2c1OC(C)(C)C2)C(=O)CC` [Example 43, 2,3-dihydro-2,2-dimethylbenzofuran-7-yl N-(N-propionyl-N-ethoxycarbonylmethylaminosulfenyl)-N-methyl-carbamate], the LD50 at 168 h in data set [1] is 43 mg/kg. Moreover, in data set [2], the mortality at 500 ppm stood at 70%, the mortality at 1000 ppm worked out at 85% and the mortality at 2000 ppm came to 100%. Further, in data set [3], the mortality at 200 ppm was 60%, the mortality at 400 ppm came to 85% and the mortality at 800 ppm turned out to be 100%. The LD50 in data set [4] worked out at 14.4 mg/kg.
Take `CCOC(=O)CN(SN(C)C(=O)Oc1cccc2c1OC(C)(C)C2)C(=O)OCC` [Example 44, 2,3-dihydro-2,2-dimethylbenzofuran-7-yl N-(N-ethoxycarbonyl-N-ethoxycarbonylmethylaminosulfenyl)-N-methyl-carbamat]: the LD50 at 168 h in data set [1] was determined as 128 mg/kg. Moreover, in data set [2], the mortality at 500 ppm worked out at 75%, the mortality at 1000 ppm came out at 90% and the mortality at 2000 ppm stood at 100%. In data set [3], the mortality at 200 ppm came to 70%, the mortality at 400 ppm was determined as 90% and the mortality at 800 ppm was found to be 100%. The molecule further returned an LD50 in data set [4] of 16.2 mg/kg.
Regarding `CCOC(=O)CN(SN(C)C(=O)Oc1cccc2c1OC(C)(C)C2)C(=O)CCl` [Example 45], the LD50 at 168 h in data set [1] came out at 80 mg/kg. In data set [2], this molecule gave a mortality at 500 ppm of 75%, a mortality at 1000 ppm of 90% and a mortality at 2000 ppm of 100%. Besides, in data set [3], the mortality at 200 ppm was 65%, the mortality at 400 ppm was determined as 90% and the mortality at 800 ppm is 100%. Further, in data set [4], the median lethal dose (LD50) was 29.2 mg/kg.
`CCOC(=O)CN(SN(C)C(=O)Oc1cccc2c1OC(C)(C)C2)C(=O)c1ccccc1` [Example 46] came in with an LD50 at 168 h in data set [1] of 105 mg/kg. In addition, in data set [2], the mortality at 500 ppm was found to be 70%, the mortality at 1000 ppm worked out at 85% and the mortality at 2000 ppm was 100%. In addition, in data set [3], the mortality at 200 ppm came to 65%, the mortality at 400 ppm is 85% and the mortality at 800 ppm is 100%. The molecule further returned an LD50 in data set [4] of 33.2 mg/kg.
`CCOC(=O)CN(SN(C)C(=O)Oc1cccc2c1OC(C)(C)C2)C(=O)c1ccc(Cl)cc1` [Example 47] registered an LD50 at 168 h in data set [1] of 95 mg/kg. Moreover, in data set [2], the mortality at 500 ppm came to 65%, the mortality at 1000 ppm is 80% and the mortality at 2000 ppm was found to be 100%. In data set [3], this molecule registered a mortality at 200 ppm of 60%, a mortality at 400 ppm of 75% and a mortality at 800 ppm of 95%. This molecule also displayed an LD50 in data set [4] of 57.8 mg/kg.
`CCOC(=O)CN(SN(C)C(=O)Oc1cccc2c1OC(C)(C)C2)S(=O)(=O)c1ccc(C)cc1` [Example 48]: the LD50 at 168 h in data set [1] stood at 80 mg/kg. In data set [2], the mortality at 500 ppm stood at 65%, the mortality at 1000 ppm came out at 80% and the mortality at 2000 ppm was determined as 100%. In data set [3], the mortality at 200 ppm worked out at 60%, the mortality at 400 ppm came out at 75% and the mortality at 800 ppm was 95%. For the same molecule, the LD50 in data set [4] was determined as 58.6 mg/kg.
Consider `CCOC(=O)CN(SN(C)C(=O)Oc1cccc2c1OC(C)(C)C2)C(=O)OC` [Example 49], for which the LD50 at 168 h in data set [1] was 105 mg/kg. In data set [2], this molecule had a mortality at 500 ppm of 75%, a mortality at 1000 ppm of 90% and a mortality at 2000 ppm of 100%. Besides, in data set [3], the mortality at 200 ppm was 70%, the mortality at 400 ppm came to 90% and the mortality at 800 ppm was 100%. For the same molecule, in data set [4], the LD50 amounted to 15.7 mg/kg.
Consider `CCOC(=O)CN(SN(C)C(=O)Oc1cccc2c1OC(C)(C)C2)C(=O)Oc1ccccc1` [Example 50], for which the LD50 at 168 h in data set [1] came to 95 mg/kg. In data set [2], the mortality at 500 ppm stood at 65%, the mortality at 1000 ppm was 80% and the mortality at 2000 ppm was 100%. Besides, in data set [3], the mortality at 200 ppm was found to be 60%, the mortality at 400 ppm stood at 75% and the mortality at 800 ppm was determined as 95%. In data set [4], this molecule had an LD50 of 34.7 mg/kg.
`CCOC(=O)N(CCC#N)SN(C)C(=O)Oc1cccc2c1OC(C)(C)C2` [Example 51] had an LD50 at 168 h in data set [1] of 88 mg/kg. Further, in data set [2], the mortality at 500 ppm was 70%, the mortality at 1000 ppm is 85% and the mortality at 2000 ppm was found to be 100%. In data set [3], the mortality at 200 ppm was found to be 65%, the mortality at 400 ppm came to 85% and the mortality at 800 ppm came out at 100%. Further, the LD50 in data set [4] stood at 45.3 mg/kg.
In data set [1], `CCOC(=O)CCN(SN(C)C(=O)Oc1cccc2c1OC(C)(C)C2)C(=O)OCC` [Example 52] yielded an LD50 at 168 h of 125 mg/kg. In data set [2], this molecule showed a mortality at 500 ppm of 70%, a mortality at 1000 ppm of 85% and a mortality at 2000 ppm of 100%. In data set [3], this molecule showed a mortality at 200 ppm of 65%, a mortality at 400 ppm of 85% and a mortality at 800 ppm of 100%. In addition, the LD50 in data set [4] came out at 54.3 mg/kg.

Source of the values: patent US4413005A, “Carbamate derivatives and insecticidal, miticidal or nematocidal compositions containing the same” (priority 1981, dated 1983).
